Calls of active or inactive are those of the source.
Tests used:
[1] = target: Procathepsin L (Homo sapiens, UniProt P07711)
[2] = target: Intestinal-type alkaline phosphatase (Homo sapiens, UniProt P09923); assay: activation of human intestinal alkaline phosphatase – biochemical, dose response (AID 488873); format: functional
[3] = target: T1, Protein RecA (Mycobacterium tuberculosis, UniProt P9WHJ3); assay: Fluorescence Cell-Free Homogeneous Dose Retest to Identify Inhibitors of RecA-Intein Splicing Activity. [Related pubchem assays (depositor defined):AID2097, AID2223, AID489010, AID492950]; format: functional
T1 sequence (P9WHJ3 whole entry): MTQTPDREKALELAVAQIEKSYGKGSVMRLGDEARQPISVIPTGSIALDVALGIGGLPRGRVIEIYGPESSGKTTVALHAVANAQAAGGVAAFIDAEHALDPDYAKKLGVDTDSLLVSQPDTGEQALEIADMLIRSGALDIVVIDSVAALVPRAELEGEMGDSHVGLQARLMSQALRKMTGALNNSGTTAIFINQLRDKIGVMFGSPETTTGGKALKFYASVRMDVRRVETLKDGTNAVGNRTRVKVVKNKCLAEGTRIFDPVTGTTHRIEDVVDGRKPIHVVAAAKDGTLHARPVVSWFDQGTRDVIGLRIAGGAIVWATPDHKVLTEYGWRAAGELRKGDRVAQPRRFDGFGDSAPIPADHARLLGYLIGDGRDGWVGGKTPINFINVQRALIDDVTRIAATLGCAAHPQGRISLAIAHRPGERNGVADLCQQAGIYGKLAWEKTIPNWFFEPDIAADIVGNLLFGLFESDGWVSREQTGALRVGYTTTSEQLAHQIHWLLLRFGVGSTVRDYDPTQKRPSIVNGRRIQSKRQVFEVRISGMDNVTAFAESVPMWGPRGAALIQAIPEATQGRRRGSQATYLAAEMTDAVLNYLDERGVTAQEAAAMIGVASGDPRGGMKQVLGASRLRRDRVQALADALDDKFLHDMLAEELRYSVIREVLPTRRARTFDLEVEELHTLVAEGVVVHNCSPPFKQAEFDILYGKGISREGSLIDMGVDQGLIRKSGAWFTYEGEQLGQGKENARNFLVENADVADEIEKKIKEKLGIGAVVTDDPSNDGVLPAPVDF

[4] = target: T2, Aspartyl aminopeptidase (Plasmodium falciparum 3D7, UniProt Q8I2J3)
T2 sequence (Q8I2J3 whole entry): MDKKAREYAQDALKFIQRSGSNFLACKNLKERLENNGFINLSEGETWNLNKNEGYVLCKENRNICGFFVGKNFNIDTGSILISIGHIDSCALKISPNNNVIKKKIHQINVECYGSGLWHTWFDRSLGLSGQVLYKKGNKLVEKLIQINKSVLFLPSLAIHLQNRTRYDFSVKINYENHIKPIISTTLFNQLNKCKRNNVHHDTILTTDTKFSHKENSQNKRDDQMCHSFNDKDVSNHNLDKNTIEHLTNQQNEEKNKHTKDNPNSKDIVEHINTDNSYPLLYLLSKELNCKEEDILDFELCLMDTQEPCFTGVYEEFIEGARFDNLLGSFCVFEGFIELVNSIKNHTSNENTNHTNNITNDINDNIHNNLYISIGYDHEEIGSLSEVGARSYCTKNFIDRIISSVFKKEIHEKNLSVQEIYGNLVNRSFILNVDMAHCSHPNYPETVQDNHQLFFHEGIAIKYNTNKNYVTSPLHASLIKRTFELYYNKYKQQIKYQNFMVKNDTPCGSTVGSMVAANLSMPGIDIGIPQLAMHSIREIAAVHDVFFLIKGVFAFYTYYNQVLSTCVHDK

[5] = target: T3, Alkaline phosphatase, tissue-nonspecific isozyme (Homo sapiens, UniProt P05186); assay: TNAP enzyme inhibition by screening hits, dose response, selectivity assay for mouse IAP inhibitor project, biochemical, human TNAP, uHTS hits (AID 488906); format: functional
T3 sequence (P05186 whole entry): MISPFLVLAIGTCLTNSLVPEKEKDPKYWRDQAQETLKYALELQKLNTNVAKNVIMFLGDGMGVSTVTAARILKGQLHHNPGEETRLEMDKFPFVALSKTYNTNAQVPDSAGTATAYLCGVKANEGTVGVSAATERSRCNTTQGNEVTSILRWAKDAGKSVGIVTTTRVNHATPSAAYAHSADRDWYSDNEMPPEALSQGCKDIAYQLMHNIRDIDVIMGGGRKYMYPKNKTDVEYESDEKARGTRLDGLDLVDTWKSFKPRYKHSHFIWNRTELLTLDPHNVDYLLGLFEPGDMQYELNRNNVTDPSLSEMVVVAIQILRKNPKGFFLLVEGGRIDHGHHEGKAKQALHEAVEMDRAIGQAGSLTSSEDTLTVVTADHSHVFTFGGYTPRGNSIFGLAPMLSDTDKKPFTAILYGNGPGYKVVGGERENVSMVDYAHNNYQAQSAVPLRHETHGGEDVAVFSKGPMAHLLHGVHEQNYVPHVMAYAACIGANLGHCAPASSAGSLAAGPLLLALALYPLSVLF

[6] = target: Intestinal-type alkaline phosphatase (Mus musculus, UniProt P24822); assay: PubChem AID 488785; format: functional
Sequence of Intestinal-type alkaline phosphatase (Mus musculus, UniProt P24822) (P24822 whole entry): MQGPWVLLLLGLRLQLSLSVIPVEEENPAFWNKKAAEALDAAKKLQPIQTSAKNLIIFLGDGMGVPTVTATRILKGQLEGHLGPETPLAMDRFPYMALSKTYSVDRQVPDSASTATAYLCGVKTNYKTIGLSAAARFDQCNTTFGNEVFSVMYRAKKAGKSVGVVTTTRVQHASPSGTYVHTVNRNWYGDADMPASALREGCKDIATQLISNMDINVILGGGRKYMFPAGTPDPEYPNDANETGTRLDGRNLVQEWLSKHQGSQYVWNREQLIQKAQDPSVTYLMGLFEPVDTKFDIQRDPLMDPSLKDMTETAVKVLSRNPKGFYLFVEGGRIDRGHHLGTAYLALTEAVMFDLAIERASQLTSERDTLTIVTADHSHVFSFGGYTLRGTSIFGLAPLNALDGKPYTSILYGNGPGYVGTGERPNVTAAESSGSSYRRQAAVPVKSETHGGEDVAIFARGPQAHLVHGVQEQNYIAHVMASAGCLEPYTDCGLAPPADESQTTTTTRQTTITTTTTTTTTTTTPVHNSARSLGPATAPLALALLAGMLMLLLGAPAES

[7] = target: T4, Rac GTPase-activating protein 1 (Homo sapiens, UniProt Q9H0H5); assay: MgcRacGAP GTPase-activating activity inhibitors, confirmation, biochemical, ADP Hunter fluorescence, primary and confirmatory (AID 624330); format: functional
T4 sequence (Q9H0H5 whole entry): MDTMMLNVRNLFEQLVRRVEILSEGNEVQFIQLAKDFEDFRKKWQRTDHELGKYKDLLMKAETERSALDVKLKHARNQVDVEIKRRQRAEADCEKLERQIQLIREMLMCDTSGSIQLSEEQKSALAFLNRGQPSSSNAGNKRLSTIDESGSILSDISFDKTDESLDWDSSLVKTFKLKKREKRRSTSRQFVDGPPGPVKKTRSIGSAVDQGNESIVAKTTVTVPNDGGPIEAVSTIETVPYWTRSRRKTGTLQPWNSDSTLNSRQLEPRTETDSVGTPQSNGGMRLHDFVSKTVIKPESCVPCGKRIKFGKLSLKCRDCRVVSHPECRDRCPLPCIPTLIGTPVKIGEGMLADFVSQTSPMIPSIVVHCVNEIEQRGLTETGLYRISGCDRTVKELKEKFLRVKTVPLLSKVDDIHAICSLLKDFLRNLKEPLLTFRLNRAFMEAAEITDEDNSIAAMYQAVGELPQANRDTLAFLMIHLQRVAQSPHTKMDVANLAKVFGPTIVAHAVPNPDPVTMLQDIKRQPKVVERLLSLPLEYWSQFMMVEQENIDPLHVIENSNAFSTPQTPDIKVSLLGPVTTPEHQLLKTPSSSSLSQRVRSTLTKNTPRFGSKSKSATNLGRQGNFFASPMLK

[8] = target: T5, Replicative DNA helicase DnaB (Mycobacterium tuberculosis, UniProt P9WMR3); assay: DnaB intein splicing inhibitors, dose response, biochemical, cell-free fluorescence (AID 449749); format: functional
T5 sequence (P9WMR3 whole entry): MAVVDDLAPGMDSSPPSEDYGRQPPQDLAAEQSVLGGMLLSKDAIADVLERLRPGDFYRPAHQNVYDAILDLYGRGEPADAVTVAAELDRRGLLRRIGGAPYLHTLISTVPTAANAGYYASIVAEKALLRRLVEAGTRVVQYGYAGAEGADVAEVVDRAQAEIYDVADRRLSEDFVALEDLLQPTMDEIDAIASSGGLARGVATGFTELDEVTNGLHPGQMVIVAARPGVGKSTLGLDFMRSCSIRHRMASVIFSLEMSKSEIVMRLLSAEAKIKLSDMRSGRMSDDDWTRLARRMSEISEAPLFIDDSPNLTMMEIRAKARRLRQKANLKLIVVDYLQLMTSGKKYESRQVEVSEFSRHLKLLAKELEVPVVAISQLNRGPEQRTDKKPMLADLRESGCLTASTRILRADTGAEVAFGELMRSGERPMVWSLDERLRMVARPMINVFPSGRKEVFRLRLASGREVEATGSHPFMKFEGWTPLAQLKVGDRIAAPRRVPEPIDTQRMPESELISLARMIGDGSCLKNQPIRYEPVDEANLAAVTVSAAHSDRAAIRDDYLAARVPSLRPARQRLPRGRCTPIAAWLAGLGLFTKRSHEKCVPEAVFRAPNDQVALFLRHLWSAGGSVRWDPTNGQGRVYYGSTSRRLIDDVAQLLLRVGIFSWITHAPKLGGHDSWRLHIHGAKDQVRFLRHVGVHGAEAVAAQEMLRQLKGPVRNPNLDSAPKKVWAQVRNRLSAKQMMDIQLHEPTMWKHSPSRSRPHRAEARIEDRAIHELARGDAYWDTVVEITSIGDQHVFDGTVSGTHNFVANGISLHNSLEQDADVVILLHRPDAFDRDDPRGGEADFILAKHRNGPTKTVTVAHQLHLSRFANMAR

[9] = target: T6, Tyrosine-protein phosphatase non-receptor type 7 (Homo sapiens, UniProt P35236); assay: redox-dependent HePTP inhibition, mechanism study, biochemical, fluorescence (AID 2068); format: functional
T6 sequence (P35236 whole entry): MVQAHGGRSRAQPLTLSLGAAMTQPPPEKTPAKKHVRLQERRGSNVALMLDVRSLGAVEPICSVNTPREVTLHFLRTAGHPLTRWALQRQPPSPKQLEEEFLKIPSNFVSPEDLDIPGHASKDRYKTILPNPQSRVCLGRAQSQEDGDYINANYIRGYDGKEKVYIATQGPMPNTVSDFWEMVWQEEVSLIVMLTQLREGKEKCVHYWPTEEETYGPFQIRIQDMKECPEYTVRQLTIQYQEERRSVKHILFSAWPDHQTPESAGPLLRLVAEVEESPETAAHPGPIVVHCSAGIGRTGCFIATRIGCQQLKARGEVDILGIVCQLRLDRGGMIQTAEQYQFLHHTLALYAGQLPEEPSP

[10] = target: DNA dC->dU-editing enzyme APOBEC-3G (Homo sapiens, UniProt Q9HC16); format: functional;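 further: Dose-response counterscreen measuring inhibition of APOBEC3G DNA deaminase activity, run while confirming APOBEC3A inhibitors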
Sequence of DNA dC->dU-editing enzyme APOBEC-3G (Q9HC16 whole entry): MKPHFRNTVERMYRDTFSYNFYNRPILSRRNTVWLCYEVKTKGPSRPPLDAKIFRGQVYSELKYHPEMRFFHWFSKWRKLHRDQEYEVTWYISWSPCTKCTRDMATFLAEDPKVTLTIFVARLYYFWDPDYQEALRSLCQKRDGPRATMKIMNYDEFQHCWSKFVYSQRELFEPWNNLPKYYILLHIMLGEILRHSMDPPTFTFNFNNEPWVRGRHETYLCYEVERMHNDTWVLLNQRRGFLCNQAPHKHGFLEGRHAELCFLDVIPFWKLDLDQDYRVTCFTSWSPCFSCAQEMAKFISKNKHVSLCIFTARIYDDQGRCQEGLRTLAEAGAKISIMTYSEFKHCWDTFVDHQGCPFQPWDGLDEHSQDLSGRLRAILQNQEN

[11] = target: DNA dC->dU-editing enzyme APOBEC-3A (Homo sapiens, UniProt P31941); assay: Dose Response confirmation of small molecule APOBEC3A DNA Deaminase Inhibitors via a fluorescence-based single-stranded DNA deaminase assay. [Related pubchem assays (depositor defined):AID493011, AID493024]; format: functional
Sequence of DNA dC->dU-editing enzyme APOBEC-3A (P31941 whole entry): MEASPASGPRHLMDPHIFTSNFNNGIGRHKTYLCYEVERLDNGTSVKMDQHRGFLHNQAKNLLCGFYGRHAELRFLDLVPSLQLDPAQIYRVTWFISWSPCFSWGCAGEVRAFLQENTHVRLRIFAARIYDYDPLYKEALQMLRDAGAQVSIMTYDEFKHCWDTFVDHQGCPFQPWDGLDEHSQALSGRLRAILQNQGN

Sequence of Intestinal-type alkaline phosphatase (Homo sapiens, UniProt P09923) (P09923 whole entry): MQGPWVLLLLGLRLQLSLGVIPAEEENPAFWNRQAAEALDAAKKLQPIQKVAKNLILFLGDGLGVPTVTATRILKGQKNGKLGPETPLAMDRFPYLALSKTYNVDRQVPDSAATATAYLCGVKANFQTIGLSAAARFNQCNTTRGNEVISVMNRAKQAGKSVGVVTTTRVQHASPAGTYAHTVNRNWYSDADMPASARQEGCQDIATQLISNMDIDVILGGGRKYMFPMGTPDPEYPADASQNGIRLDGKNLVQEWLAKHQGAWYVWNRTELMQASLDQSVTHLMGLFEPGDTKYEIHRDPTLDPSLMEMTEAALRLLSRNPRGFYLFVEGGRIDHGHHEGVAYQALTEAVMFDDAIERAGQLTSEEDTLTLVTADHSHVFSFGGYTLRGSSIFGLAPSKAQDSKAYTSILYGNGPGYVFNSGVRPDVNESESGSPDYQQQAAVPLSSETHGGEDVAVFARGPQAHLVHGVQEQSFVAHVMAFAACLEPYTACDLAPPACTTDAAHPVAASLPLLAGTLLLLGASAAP
Sequence of Procathepsin L (P07711 whole entry): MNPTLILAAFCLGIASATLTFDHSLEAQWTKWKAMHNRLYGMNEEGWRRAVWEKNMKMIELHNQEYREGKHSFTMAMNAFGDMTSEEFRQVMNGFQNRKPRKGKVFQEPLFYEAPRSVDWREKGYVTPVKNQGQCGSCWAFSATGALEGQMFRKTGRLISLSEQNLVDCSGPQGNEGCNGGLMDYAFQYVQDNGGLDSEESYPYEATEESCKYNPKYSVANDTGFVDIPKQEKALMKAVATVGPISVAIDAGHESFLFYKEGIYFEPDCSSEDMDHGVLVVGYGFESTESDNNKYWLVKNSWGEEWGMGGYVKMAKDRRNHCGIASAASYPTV

Oc1cc(O)c2c(c1)O[C@H](c1ccc(O)c(O)c1)[C@H](O)C2 [(-)-EPICATECHIN]
IC50 [1]: > 59.6 µM (not active) | EC50 [2]: > 100 µM (inactive) | EC50 [3]: > 380 µM (inconclusive) | IC50 [4]: 1.38 µM (active) | IC50 [5]: 0.407 µM (active) | IC50 [6]: 1.36 µM (active) | IC50 [7]: 206 µM (active) | AC50 [8]: > 380 µM (inactive)

O=C(NCc1ccc2c(c1)OCO2)Nc1ccc2nc(-c3ccco3)c(-c3ccco3)nc2c1
IC50 [9]: 2.15 µM (active)

CCn1c(C)[n+](CC)c2cc(S(=O)(=O)NC)ccc21
IC50 [10]: 17.5 µM (active) | IC50 [11]: 6.81 µM (active)

CCC(CO)(C(=O)OC1C[N+]2(C)CCC1CC2)c1ccccc1 (stereo not drawn)
IC50 [10]: 2.09 µM (active) | IC50 [11]: 2.25 µM (active)
